Row | Structure (SMILES) | melting point [°C]
1 | Cc1cc(-c2nc3c(Cl)cccc3c(=O)[nH]2)cc(C)c1OCCN1CCCC1 | 216 to 217
2 | COc1ncccc1-c1cccc(OC2SCC(OC(C)=O)C(OC(C)=O)C2OC(C)=O)c1 (stereo not drawn) | 179
3 | CSc1ccc2c(c1)N=CC(SC)C2=O (stereo not drawn) | 90 to 92
4 | Nc1ccc(Oc2ccccc2Oc2ccc(N)c(O)c2)cc1O | > 180
5 | O=c1c(I)c(OCc2ccc(F)cc2F)ccn1Cc1cccc(F)c1 | 164 to 167
6 | Cc1ccc2sc3cc(CC(=O)O)ccc3c2c1 | 185 to 187
7 | Nc1nc(Cl)cc(OC(F)(F)F)n1 | 55 to 56
8 | C=CCC1(CC=C)c2cc(Br)ccc2-c2ccc(N(c3ccccc3)c3ccccc3)cc21 | 141 to 143
9 | O=C1c2ccccc2C2(O)Oc3ccc([N+](=O)[O-])cc3C12O (stereo not drawn) | 206 to 207
10 | CS(=O)(=O)c1ccc(-c2cnn(Cc3ccc4ccccc4n3)c(=O)c2-c2ccc(F)cc2)cc1 | 97 to 100
11 | O=C(O)Cc1ccccc1OCCCCc1cc(-c2ccc(C(F)(F)F)cc2)no1 | 122 to 123
12 | ON1C(c2ccccc2)CC2(CC1c1ccccc1)OCCO2 (stereo not drawn) | 161 to 162
13 | Cc1ccc(S(=O)(=O)Sc2cc(C)c(NC(=O)OC(C)(C)C)cc2C(C)(C)C)cc1 | 106 to 108
14 | O=C1NC(=O)C(Cc2ccc(OCCON=Cc3ccc(-c4ccccc4)cc3)cc2)S1 (stereo not drawn) | 124 to 127
15 | O=c1c2ccccc2nc(-c2sc(Nc3ccc(Cl)cc3)nc2-c2ccccc2)n1-c1ccc(Cl)cc1 | 271 to 272
16 | Cc1nccc2[nH]c(=O)c(C(=O)O)cc12 | 255 to 257
17 | CCCc1[nH]c(C(=O)OCC)c(C)c1CCC(=O)OCC | 61.5 to 63.5
18 | c1ncn(CCc2ccc3c(c2)-c2[nH]nc(-c4ccsc4)c2C3)n1 | 167 to 168
19 | COC(=O)C12CCc3ccccc3C1=NN(C(=O)Nc1ccc(C(F)(F)F)cc1)C2 (stereo not drawn) | 177 to 180
20 | O=C(O)c1cc(F)c(F)c(Br)c1Cl | 138 to 140
21 | O=c1oc(-c2ccc(C#Cc3ccccc3)cc2)cc(O)c1SCCc1ccccc1 | 181 to 182
22 | CCC1(CO)Cc2cc(OCC(=O)O)c(Cl)c(Cl)c2C1=O (stereo not drawn) | 155 to 157
23 | CCOC(=O)c1ccc(C=C(C)C)c(OC)c1 | 42

Row | Structure (SMILES) | melting point [°C]
24 | COC(=O)c1ccc(C(=O)NN)cn1 | 177 to 180
25 | Fc1ccc2[nH]c3c(ccc4cc[nH]c43)c2c1 | > 250
26 | CC(C)(C)OC(=O)NC12CCC1CNC2 (stereo not drawn) | 113 to 116
27 | CN1Cc2c(-c3noc(CCl)n3)ncn2-c2ccc(F)c(Cl)c2C1=O | 215 to 218
28 | CC(C)(C)OC(=O)C(C1NC(C(=O)O)C2(CCSCC2)S1)N1C(=O)c2ccccc2C1=O (stereo not drawn) | 210 to 212
29 | COc1cc(C(=O)Nc2c(Cl)cc3c(Br)n[nH]c3c2C(=O)NC2(C3CC3)CC2)n(-c2ncccc2Cl)n1 | 190 to 194
30 | COc1c(Cl)ccc(-c2nc(C(=O)OCc3ccc(Cl)cc3)c(Cl)c(N)c2F)c1F | 143
31 | O=C(c1nnn(Cc2cc(C(F)(F)F)cc(C(F)(F)F)c2)c1-n1ccnc1)c1c(CO)noc1-c1ccccc1Cl | 149
32 | CC(C)(C)[Si](OCC1OC(n2ccc(N)nc2=S)C(O)(CC[Si](C)(C)C)C1O)(c1ccccc1)c1ccccc1 (stereo not drawn) | 126
33 | O=Cc1cc(O)ccc1-c1cccc(C(F)(F)F)c1 | 100 to 102
34 | O=C(O)CN1C(=O)[C@@H](N[C@@H](CCC2CCCCC2)C(=O)O)CSc2ccccc21 | 207 to 210
35 | COCc1cccc2oc(C(=O)Nc3ccc(-c4ccc(S(=O)(=O)N(C)C(C(=O)O)C(C)C)cc4)cc3)c(C)c12 (stereo not drawn) | 144 to 146
36 | CC1(C)C(C=CC(=O)OC2CC2)C1C(=O)OC(C#N)c1cccc(Oc2ccccc2)c1 (stereo not drawn) | 62
37 | CCCc1ccccc1OS(=O)(=O)c1ccc(N2CCN(C)C2=O)cc1 | 103 to 105
38 | CC(CS(=O)(=O)c1ccccc1)C1CCC2C3CC=C4CC(O)CC(O)C4(C)C3CCC12C (stereo not drawn) | 214
39 | COc1ccc(COc2ccc(C(=O)NC[C@@H](C(=O)NO)N3CCN(S(C)(=O)=O)CC3)cc2)cc1 | 148
40 | O=C(NNc1nc(C(F)(F)F)nc(-c2ccncc2)c1-c1ccc(F)cc1)C(F)(F)F | 240 to 242
41 | COC(=O)CS(=O)(=O)Nc1ccc(F)c(C(F)(F)F)c1 | 111 to 112
42 | COc1cc(C2Cc3ccccc3-c3nc(N)c4ccccc4c32)cc(OC)c1OC (stereo not drawn) | 272
43 | CCOC(=O)N1CCC(NC(=O)c2ccc(Cl)cc2Cl)C12CCCCC2 (stereo not drawn) | 143 to 144
44 | O=C1CCC(c2c(-c3ccccc3)nn3ccccc23)=NN1 | 187 to 189
45 | NCC1Cc2cc(-c3ccccc3)cc(-c3ccccc3F)c2O1 (stereo not drawn) | > 250
46 | COc1ccc(N2CCN(CCC3OCCc4cc(C(N)=O)ccc43)CC2)cc1 (stereo not drawn) | 180 to 182

Next, values leading:

Row | melting point [°C] | Structure (SMILES)
47 | 112 to 115 | O=C1c2ccccc2CN1C1CCN(c2ccc(C(OCc3ccccc3)c3ccccc3)cc2)CC1 (stereo not drawn)
48 | 128 to 130 | CC(C)c1ncc(C(=O)O)nc1C(C)C
49 | 90 to 92 | CC(=O)c1ccc2c(c1)N(C1CCN(CCc3ccc(F)cc3)CC1)CC2
50 | 227 to 229 | COCOc1ccc(-c2ccc3c(c2)C=C(C(=O)Nc2ccc(CN(C)C4CCOCC4)cc2)CCS3(=O)=O)cc1
51 | 189 to 190 | O=c1c2ccccc2ncn1NC(=S)Nc1ccc(Br)cc1
52 | 270 to 272 | Cc1nn(C)c2cc(-c3nn(C(C)c4oc5ccccc5c(=O)c4-c4cccc(F)c4)c4ncnc(N)c34)ccc12 (stereo not drawn)
53 | 122 to 125 | CC(O)(C#Cc1ccc(S(=O)(=O)c2ccncc2)cc1)C(F)(F)F (stereo not drawn)
54 | 142 to 143 | COCc1c(O)ccc2c1CCCC2=O
55 | 174 to 176 | N#CCOc1cc(C(F)(F)F)nc2ccc(-c3cc4ccccc4o3)cc12
56 | 215 to 217 | O=C1N(Cc2cnc(Br)s2)c2ccccc2C12COc1cc3c(cc12)OCO3 (stereo not drawn)
57 | > 340 | NC(=O)c1cnc2c(cc([N+](=O)[O-])c3nncc32)c(-c2ccccc2Cl)n1
58 | 173 | O=[N+]([O-])c1cccc(Nc2nc(Cl)nc(Cl)n2)c1
59 | 38 to 40 | O=C(O[C@@H]1CC[C@H]1Br)c1ccccc1 (relative stereo)
60 | 119 to 121 | COC(=O)c1ccnc(N2CCN(Cc3ccc(F)cc3)C2=O)c1
61 | 137 to 138 | ON=C1CCC(O)(c2ccccc2Cc2ccccc2)CC1 (stereo not drawn)
62 | 198 to 202 | Cc1cc(N)cc(C)c1Oc1ccc(O)c(C(=O)c2ccc(F)cc2)c1
63 | 34 | C=C(CO)COCCCCCCCCCCCCCCCC
64 | 200 to 201 | CC1CCC(C(=O)Nc2ccccc2)=C2NC=C(C(=O)O)C(=O)N21 (stereo not drawn)
65 | 197 to 199 | OC1(c2c[nH]c(-c3ccc(F)cc3)c2-c2ccncc2)CCNCC1
66 | 99 to 100 | COC(=O)C1=C(C)NC(C(OC)OC)=C(C(=O)OC)C1c1cccc([N+](=O)[O-])c1 (stereo not drawn)
67 | 136 to 137 | COc1ccc(CCNC(N)=O)cc1OC1CCCC1
68 | 149 to 153 | COc1ccc2c(c1)OC(C(=O)O)Oc1ccccc1C2 (stereo not drawn)
69 | 195 to 197 | CCCCc1oc2ccccc2c1C(=O)Nc1ccc2c(Br)c(O)ccc2c1
70 | 185 to 190 | COc1cc(OC)nc(NC(=O)NS(=O)(=O)c2ccccc2C=C2CCOC2=O)n1
71 | 130 | CCOC(=O)c1c(Cc2cc3c(cc2Cl)OCO3)c(-c2ccccc2)nn1CC1CCCCC1
72 | 270 | O=C(O)c1ccc(COc2ccccc2)nc1C(=O)O

Row | melting point [°C] | Structure (SMILES)
73 | 250 to 251 | COc1cc2c(Oc3ccc4[nH]c(C)cc4c3)ncnc2cc1OCC1CCN(C)C(=O)C1 (stereo not drawn)
74 | 96 to 97 | N#CCCCCCCCCCOc1cccc(C(N)=O)c1
75 | 177 to 190 | CNC(=O)c1ccccc1Nc1nc(Nc2ccc3c(c2)CCN(CC(F)(F)F)CC3)ncc1Cl
76 | 210 to 215 | COc1cc2oc(=O)c3c(c2cc1NC(C)=O)CCN(CC(C)=O)C3
77 | 81 to 83 | CCCCC(C(=O)c1ccc(Cl)cc1)n1cncn1 (stereo not drawn)
78 | 99 to 100 | CC(C)CCNc1c([N+](=O)[O-])cnc2ccccc12
79 | 49 to 50.5 | Cc1ccc(SN(C)C=Nc2ccc(Cl)cc2C)cc1
80 | 152 to 154 | O=C(O)COc1cc2c(-c3ccccc3)csc2c(Cl)c1Cl
81 | 148 to 150 | CN(O)C(=O)NCCCCCCOc1ccc(-c2ccccc2)cc1
82 | 148 to 149 | N#CCCNC(=O)c1cccc(-c2ccc3c(c2)N(Cc2ccc(Cl)cc2Cl)CC3)c1
83 | 121 to 122 | COc1ccc(NC(=O)OCC2(C(C)=O)CC3C=CC2C3)cc1C (stereo not drawn)
84 | 138 to 140 | CCOC(=O)c1c(O)c2ccc(C)nc2n(CC)c1=O
85 | 165 to 167 | COc1cc2cc(COC(C)=O)c(COC(C)=O)c(-c3ccncc3)c2cc1OC
86 | 199 to 200 | CC1(C)C(=O)Nc2ccc(F)cc2N1C(=O)N1CCCC1
87 | 168 to 170 | CCn1ncc2c(Cl)c3cccc(OC)c3nc21
88 | 141 to 143 | COC(=O)CCCc1c(-c2ccc(F)cc2)[nH]c2ccc(-c3ccc(O)cc3)cc12
89 | 88 | COc1cccc(N(C)C(=O)c2cnc(-c3cccc(C)c3)s2)c1
90 | 132 to 133 | COc1ccc(-n2c(-c3ccccc3)cc3c2CCCC3)cc1
91 | 165 to 168 | CC(=O)NC[C@H]1CN(c2ccc(N3C[C@H]4CN(C(=O)OCc5ccccc5)C[C@H]4C3)c(F)c2)C(=O)O1
92 | 220 | COc1ccccc1CNc1ccc2cc(Nc3nc4cc(C)ccc4o3)ccc2n1
93 | 65 to 67 | CNC(=O)Nc1cc(C(C)(C)COC)on1
94 | 106 to 108 | COc1ccc(CNc2nc(NC[C@@H](C)O)nc3c2ncn3C(C)C)c(O)c1
95 | 181 to 182 | C=CCNc1nc(N2CCc3ccccc3CC2)c(C#N)c(=O)n1CC=C
96 | 189 to 192 | Cc1cc(O)n(-c2ccc(N3CCOCC3)nn2)n1
97 | 48 to 50 | N#Cc1cc(Cl)c(F)cc1F
98 | 252 to 254 | O=C(O)c1cnc(Nc2cccc(C(F)(F)F)c2)[nH]c1=O

Reference: a melting point compilation (Tetko et al.; mined from patent text by program, amines drawn as free bases though some values may be those of a salt)
